Reference: article PMC4195671, “Luteolin Suppresses Cancer Cell Proliferation by Targeting Vaccinia-Related Kinase 1” (PLoS ONE, 2014)
Where two headings read alike, the source gives them in different places.

Key:
[1] = molecular target: T1, Vaccinia-related kinase 1 (VRK1) (Homo sapiens, UniProt Q99986); test: biochemical; assay type: binding
[2] = molecular target: T1, Vaccinia-related kinase 1 (VRK1); test: biochemical; assay type: binding; remark: listed apart in the source

T1 sequence (Q99986 whole entry): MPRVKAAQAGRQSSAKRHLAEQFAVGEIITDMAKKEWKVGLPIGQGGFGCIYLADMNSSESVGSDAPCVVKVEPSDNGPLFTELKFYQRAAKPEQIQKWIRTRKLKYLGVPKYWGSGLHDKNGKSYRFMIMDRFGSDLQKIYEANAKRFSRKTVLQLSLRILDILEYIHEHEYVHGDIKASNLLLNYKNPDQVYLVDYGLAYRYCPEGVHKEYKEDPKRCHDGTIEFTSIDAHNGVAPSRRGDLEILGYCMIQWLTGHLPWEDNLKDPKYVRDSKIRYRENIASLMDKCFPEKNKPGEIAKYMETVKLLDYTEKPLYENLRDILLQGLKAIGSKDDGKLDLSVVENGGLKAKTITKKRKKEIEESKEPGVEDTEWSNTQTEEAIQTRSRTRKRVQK

Row | SMILES | Kd [1] | Kd [2]
1 | COc1ccc(-c2cc(=O)c3c(O)c(OC)c(O)cc3o2)cc1OC [eupatilin] | 184 µM | 
2 | O=c1cc(-c2ccc(O)c(O)c2)oc2cc(O)cc(O)c12 [luteolin, 3′,4′,5,7-tetrahydroxyflavone] |  | 5.8 µM
3 | COc1c(O)cc(O)c2c(=O)cc(-c3ccccc3)oc12 [wogonin] | 120 µM | 
